Here are results for two compounds from PubChem BioAssay (NCI).

Several values for one entry are separate records, joined by “and”; a condition that tells them apart may be missing. Equal values may be shown once.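 Test compounds were applied to cells in 96-well plates for 48 hours at 5 doses. Abbreviation: GI50, concentration required for 50% inhibition of growth. TGI: concentration producing complete growth inhibition.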 Some results are limits rather than exact numbers.

Common to all, as to assay: NCI-60 cell line screen, 48 h
In test [1] the test system is DMS 273 small cell lung.
Test [2] has as its system HS 578T breast.
Test [3] deals with KM20L2 colon.
Test [4] deals with M19-MEL melanoma.
In test [5] the test system is MDA-MB-231 breast.
The subject of test [6] is MDA-N.
Test [7] concerns RPMI-8226 leukemia.
Test [8] deals with SNB-19 CNS.
The subject of test [9] is SNB-78 CNS.
Test [10] deals with XF 498 CNS.

In the case of `CC[C@@]1(O)C(=O)OCc2c1cc1n(c2=O)Cc2cc3c(CN(C)C)c(O)ccc3nc2-1`, the GI50 in test [1] is 0.0372 µM; in [2], 1.27 µM and 5.8 µM and 1.88 µM; in test [3], 2.22 µM; in [4], 0.603 µM; in [5], 0.847 µM and 0.393 µM and 3.22 µM; in test [6] it was 0.0241 µM and 0.119 µM and 0.0221 µM. In addition, the GI50 in test [7] is 0.163 µM and 0.0818 µM and 0.435 µM; in test [8] it was < 0.0131 µM and 0.026 µM; in test [9] it was 0.0867 µM; in test [10], 0.585 µM. The TGI in [1] was 1.09 µM and 0.609 µM; in [2], 96.6 µM and 12.2 µM and 39.6 µM; in test [3], 8.27 µM; in [4] it was 5.17 µM and 1.36 µM; in [6] it was 0.777 µM and 5.2 µM and 0.902 µM; in [9], 2.49 µM.

Take `O=C1C(Cl)=C(N2CCN(CCOCCO)CC2)C(=O)c2ccccc21`: the TGI in [1] was 31.2 µM; in test [2] it was 39.2 µM; in [3], 32.2 µM; in test [4], 14.6 µM; in [5], 17.9 µM; in test [6], 4.17 µM. The TGI was more than 26.9 µM in test [7], more than 56.3 µM in [8], 32.3 µM in test [9] and 5.81 µM in test [10].
